Legend:
Human IL-17AF = biological target: T1, Human IL-17AF (Homo sapiens, UniProt Q16552+Q96PD4); assay: IL-17AF ELISA (competitive ELISA, IL-17AF/IL-17Ra receptor-ligand binding); details: human IL-17AF coated plate, human IL-17Ra, read-out: IC50, inhibitory activity of compounds on human IL-17AF
T1 construct: purchased Sino Biological Inc. CT047-H08H
T1 sequence (Q16552 24-155): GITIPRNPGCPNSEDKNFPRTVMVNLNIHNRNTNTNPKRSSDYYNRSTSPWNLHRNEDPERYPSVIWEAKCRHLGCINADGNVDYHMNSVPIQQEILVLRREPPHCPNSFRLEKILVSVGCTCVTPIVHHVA
T1 sequence (Q96PD4 31-163): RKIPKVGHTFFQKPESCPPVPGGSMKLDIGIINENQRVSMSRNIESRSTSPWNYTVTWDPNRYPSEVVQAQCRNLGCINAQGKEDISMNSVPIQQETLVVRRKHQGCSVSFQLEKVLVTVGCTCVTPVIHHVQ
Protocol: Experiment Example 2 IL-17AF ELISA
The inhibitory effects of human IL-17AF inhibitors on receptor-ligand binding were quantitatively determined by a competitive ELISA.
The ELISA was performed through the following steps.
Human IL-17AF (Sino Biological Inc., Cat #CT047-H08H) was diluted with coating buffer (50 mM PBS, pH 7.4) to reach a concentration of 0.625 μg/ml. 100 μL of the resulting solution was added to each well of a 96-well plate, and the plate was incubated at 37° C. for 30 min. In the blank group, 100 μL of coating buffer was added instead of the IL-17AF solution.
The plate was washed four times with 10 mM PBST (pH 7.4). 200 μL was used per well for each wash. After the final wash, the plate was tapped dry on absorbent paper.
Fresh 5% (w/v) skim milk solution was prepared before the experiment. For example, 5 grams of skim milk powder (Bio-Rad, Cat #170-6404) was completely dissolved in 100 mL of 10 mM PBST. 200 μL of the 5% (w/v) skim milk solution was added to each well, and the plate was incubated on a shaker at 25° C. for 30 min.
(S4) Preparation of 100× to-be-Tested Compound Solutions
During step (S3), the to-be-tested compound solutions were prepared. Each powdered compound was dissolved in dimethyl sulfoxide (DMSO) to reach a stock concentration of 10 mM. The to-be-tested compound solutions were then serially diluted four-fold with DMSO to obtain nine concentrations ranging from […].
(S6) Pre-Incubation of IL-17AF with to-be-Tested Compound Solutions
89 μL of PBST and 1 μL of each of the to-be-tested compound solutions were added to each well and mixed. The plate was pre-incubated at 25° C. for 10 min. In the blank group and the control group, 1 μL of DMSO was added instead of the to-be-tested compound solutions.
(S7) Incubation with Human IL-17Ra
10 μL of 100 nM IL-17Ra (Sino Biological Inc., Cat #10895-H03H) was added to each well, followed by incubation on a shaker at 25° C. for 30 min. The receptor solution was prepared in 10 mM PBST.
(S9) Incubation with Horseradish Peroxidase-Conjugated Antibody
100 μL of mouse anti-Fc tag HRP-conjugated antibody (Sino Biological Inc., Cat #10702-MM01T-H) was added to each well. The plate was incubated on a shaker at 25° C. for 30 min. The antibody was diluted with 5% (w/v) skim milk solution at 1:5,000 (v/v).
100 μL of TMB substrate solution (BD, Cat #555214) was added to each well. Substrate A and substrate B were freshly mixed at a volume ratio of 1:1 before use. The plate was incubated in the dark at 25° C. for 5-15 min.
(S12) Termination and Detection
The color reaction was terminated by addition of 2.5 M HCl. Absorbance was measured at 450 nm using a BMG PHERStar microplate reader.
(S13) Calculation of Half-Maximal Inhibitory Concentration (IC50)
The relative percent residual activity at each compound concentration was calculated according to Equation 1. The IC50 value of each test compound was then calculated in GraphPad 6 using the equation for log(inhibitor) versus normalized response with variable slope, as shown in Equation 2.
relative percent residual activity (%)=[(absorbance of sample−absorbance of blank group)/(absorbance of control group−absorbance of blank group)]%. Equation 1: […]
The compounds prepared in the Examples were tested for IL-17AF inhibitory activity according to the above method.

Human IL-17A = biological target: T2, Human IL-17A (Homo sapiens, UniProt Q16552); assay: Inhibition of human IL-17A protein-induced GROα/CXCL1 production in HT-29 cells; format: cell-based; design: purchased R&D 317-ILB; host or cells: added exogenously to HT-29 cells; details: 30 ng/mL human IL-17A protein, 48 h, GROα in supernatant by ELISA kit, read-out: Inhibitory IC50 of compounds on HT-29 cell GROα/CXCL1
T2 sequence (Q16552 20-155 limits assumed): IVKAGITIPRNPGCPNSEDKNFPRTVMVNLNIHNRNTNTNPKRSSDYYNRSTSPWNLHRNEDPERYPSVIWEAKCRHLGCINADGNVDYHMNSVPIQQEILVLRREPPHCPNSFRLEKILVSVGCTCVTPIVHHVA
How it was run: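 Compound dilutions were preincubated 1 h at 37 °C with 30 ng/mL human IL-17A, then added to HT-29 cells (5×10^4/well) for 48 h at 37 °C. GROα in supernatant quantified by ELISA; IC50 for inhibition of its production. Positive control: IL-17A antibody at […].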

Compound | IC50 (Human IL-17AF) | IC50 (Human IL-17A)
Cc1[nH]nc2c1-c1cc(F)c(NC(=O)[C@@H](NC(=O)/C(F)=C\C(C)C)C(C3CC3)C3CC3)cc1COCC2 [compound 229] | 100 to 500 nM | ≤ 100 nM
Cc1[nH]nc2c1-c1cc(F)c(NC(=O)[C@@H](NC(=O)c3ccnn3CC3CC3)C(C3CC3)C3CC3)cc1COCC2 [compound 59] | 100 to 500 nM | 100 to 500 nM
CCOCCn1nccc1C(=O)N[C@H](C(=O)Nc1cc2c(cc1F)-c1c(n[nH]c1C)CCOC2)C(C1CC1)C1CC1 [compound 100] | ≤ 100 nM | 100 to 500 nM
Cc1[nH]nc2c1-c1cc(F)c(NC(=O)[C@@H](NC(=O)c3ccnn3CC(C)(F)F)C(C3CC3)C3CC3)cc1COCC2 [compound 87] | 100 to 500 nM | 100 to 500 nM
CC(=O)N1CCc2n[nH]c(C)c2-c2cnc(NC(=O)[C@@H](NC(=O)c3ccnn3C(C)C)C(C3CC3)C3CC3)cc2C1 [compound 196] | 100 to 500 nM | 100 to 500 nM
Cc1[nH]nc2c1-c1cnc(NC(=O)[C@@H](NC(=O)c3ccnn3C(C)C)C(C3CC3)C3CC3)cc1CN(Cc1ccccc1)C(=O)C2 [compound 182] | 100 to 500 nM | 100 to 500 nM
Cc1[nH]nc2c1-c1cc(F)c(NC(=O)[C@@H](NC(=O)c3ccnn3C(C)CF)C(C3CC3)C3CC3)cc1COCC2 (single isomer, unassigned) [compound 42a] | ≤ 100 nM | ≤ 100 nM
Cc1[nH]nc2c1-c1cc(F)c(NC(=O)[C@@H](NC(=O)c3ccnn3C(C)C)C(C3CC3)C3CC3)cc1CN(C1CC(F)(F)C1)C(=O)C2 [compound 169] | ≤ 100 nM | ≤ 100 nM
Cc1[nH]nc2c1-c1ccc(NC(=O)[C@@H](NC(=O)c3ccnn3C(C)C)C(C3CC3)C3CC3)cc1CNC(=O)C2 [compound 27] | 100 to 500 nM | 100 to 500 nM
Cc1[nH]nc2c1-c1cnc(NC(=O)[C@@H](NC(=O)c3conc3C(C)C)C(C3CC3)C3CC3)cc1CN(C1CC1)CC2 [compound 214] | ≤ 100 nM | ≤ 100 nM
[2H]C([2H])([2H])C([2H])(n1nccc1C(=O)N[C@H](C(=O)Nc1ccc2c(c1)COCCc1n[nH]c(C)c1-2)C(C1CC1)C1CC1)C([2H])([2H])[2H] [compound 52] | 100 to 500 nM | ≤ 100 nM
Cc1[nH]nc2c1-c1cnc(NC(=O)[C@@H](NC(=O)c3ccnn3C(C)C)C(C3CC3)C3CC3)cc1CN(C(C)C)CC2 [compound 200] | 100 to 500 nM | 100 to 500 nM
Cc1[nH]nc2c1-c1cnc(NC(=O)[C@@H](NC(=O)c3ccnn3C(C)C)C(C3CC3)C3CC3)cc1CN(CC(F)F)CC2 [compound 202] | 100 to 500 nM | ≤ 100 nM
Cc1[nH]nc2c1-c1cnc(NC(=O)[C@@H](NC(=O)c3ccnn3C(C)C)C(C3CC3)C3CC3)cc1CN(CC(C)(F)F)C(=O)C2 [compound 193] | ≤ 100 nM | ≤ 100 nM
Cc1[nH]nc2c1-c1cc(F)c(NC(=O)[C@@H](NC(=O)c3ccnn3CC3(C#N)CC3)C(C3CC3)C3CC3)cc1COCC2 [compound 114] | ≤ 100 nM | 100 to 500 nM
Cc1[nH]nc2c1-c1cc(F)c(NC(=O)[C@@H](NC(=O)c3ccnn3CCOC(C)(C)C)C(C3CC3)C3CC3)cc1COCC2 [compound 113] | 100 to 500 nM | 100 to 500 nM
Cc1[nH]nc2c1-c1cnc(NC(=O)[C@@H](NC(=O)c3ccnn3C(C)C)C(C3CC3)C3CC3)cc1CN(C1CCC1)CC2 [compound 201] | 100 to 500 nM | ≤ 100 nM

Compound | IC50 (Human IL-17AF) | IC50 (Human IL-17A)
CCn1nccc1C(=O)N[C@H](C(=O)Nc1cc2c(cn1)-c1c(n[nH]c1C)CCN(C1CC1)C2)C(C1CC1)C1CC1 [compound 217] | ≤ 100 nM | ≤ 100 nM
CCc1nocc1C(=O)N[C@H](C(=O)Nc1cc2c(cn1)-c1c(n[nH]c1C)CCOC2)C(C1CC1)C1CC1 [compound 240] | 100 to 500 nM | 100 to 500 nM
Cc1[nH]nc2c1-c1cnc(NC(=O)[C@@H](NC(=O)c3conc3C(C)C)C(C3CC3)C3CC3)cc1COCC2 [compound 234] | 100 to 500 nM | 100 to 500 nM
Cc1[nH]nc2c1-c1cnc(NC(=O)[C@@H](NC(=O)c3ccnn3C(C)C3CC3)C(C3CC3)C3CC3)cc1COCC2 (single isomer, unassigned) [compound 188a] | 100 to 500 nM | 100 to 500 nM
Cc1[nH]nc2c1-c1cc(F)c(NC(=O)[C@@H](NC(=O)c3ccnn3C(C)C)C(C3CC3)C3CC3)cc1CN(C(C)C(F)(F)F)C(=O)C2 (mixture of isomers) [compound 173] | 100 to 500 nM | ≤ 100 nM
Cc1[nH]nc2c1-c1cnc(NC(=O)[C@@H](NC(=O)/C(F)=C\C(C)C)C(C3CC3)C3CC3)cc1COCC2 [compound 238] | 100 to 500 nM | ≤ 100 nM
[2H]C([2H])([2H])C([2H])([2H])n1nccc1C(=O)N[C@H](C(=O)Nc1cc2c(cc1F)-c1c(n[nH]c1C)CCOC2)C(C1CC1)C1CC1 [compound 90] | 100 to 500 nM | 100 to 500 nM
[2H]C([2H])([2H])C([2H])(n1nccc1C(=O)N[C@H](C(=O)Nc1cc2c(cn1)-c1c(n[nH]c1C)CCOC2)C(C1CC1)C1CC1)C([2H])([2H])[2H] [compound 54] | ≤ 100 nM | ≤ 100 nM
Cc1[nH]nc2c1-c1cnc(NC(=O)[C@@H](NC(=O)/C(F)=C\C3CC3)C(C3CC3)C3CC3)cc1COCC2 [compound 239] | 100 to 500 nM | ≤ 100 nM
Cc1[nH]nc2c1-c1cc(F)c(NC(=O)[C@@H](NC(=O)c3ccnn3C(C)C)C(C3CC3)C3CC3)cc1COCC2 [compound 15] | ≤ 100 nM | ≤ 100 nM
Cc1[nH]nc2c1-c1cc(F)c(NC(=O)[C@@H](NC(=O)c3ccnn3CCCF)C(C3CC3)C3CC3)cc1COCC2 [compound 86] | ≤ 100 nM | ≤ 100 nM
Cc1[nH]nc2c1-c1cc(F)c(NC(=O)[C@@H](NC(=O)c3ccnn3C(C)C)C(C3CC3)C3CC3)cc1CN(C1CC(F)(F)C1)CC2 [compound 176] | ≤ 100 nM | ≤ 100 nM
CCn1nccc1C(=O)N[C@H](C(=O)Nc1cc2c(cc1F)-c1c(n[nH]c1C)CCOC2)C(C1CC1)C1CC1 [compound 16] | 100 to 500 nM | 100 to 500 nM
Cc1[nH]nc2c1-c1cc(F)c(NC(=O)[C@@H](NC(=O)c3ccnn3C(C)C)C(C3CC3)C3CC3)cc1CN(C1CCOCC1)CC2 [compound 174] | 100 to 500 nM | ≤ 100 nM
Cc1[nH]nc2c1-c1cnc(NC(=O)[C@@H](NC(=O)c3ccnn3CCCF)C(C3CC3)C3CC3)cc1COCC2 [compound 124] | 100 to 500 nM | ≤ 100 nM
Cc1[nH]nc2c1-c1cc(F)c(NC(=O)[C@@H](NC(=O)c3ccnn3C(C)C)C(C3CC3)C3CC3)cc1CN(C1CCC(F)(F)CC1)C(=O)C2 [compound 168] | 100 to 500 nM | ≤ 100 nM

— patent US20260258050A1, “IMMUNOMODULATOR” (HITGEN INC., priority 2023, published 2026)
